Source: paper PMC11171218, “N-Benzylated 5-Hydroxybenzothiophene-2-carboxamides as Multi-Targeted Clk/Dyrk Inhibitors and Potential Anticancer Agents” (Cancers, 2024)

How the values were obtained:
[1] = system: cleaved caspase-3; experiment: Western blot, cleaved caspase-3 in T24 cells; format: cell-based, human; details: 10–50 μM, 24 h
From the text: (§1) Cell lysates were sequentially suspended in commercial RIPA Buffer (pH 7.4; Cat# RB4475, Bio Basic, Markham, Ontario, Canada) containing Protease Inhibitor Cocktail and PhosSTOP (Merck, Darmstadt, Germany), boiled in sodium dodecyl sulphate (SDS) sample buffer, separated by SDS-polyacrylamide gel electrophoresis (PAGE), and electrophoresed onto a PVDF membrane. Antibodies used in this study were Bcl-2 (Cat#A19693, RRID: AB_2862738) and Bax (Cat# A0207, RRID: AB_2757021) from ABclonal (Boston, MA, USA); cleaved caspase-3 (Cat# 9662, RRID: AB_331439) and GAPDH (Cat# 8884, RRID:AB_11129865) from Cell Signaling Technology (Beverly, MA, USA). The labeled signals were determined using HRP-conjugated secondary antibodies and the Bio-rad ChemiDoc™ MP Imaging System (Berkeley, CA, USA).
(§2) Figure 4 Examining the effect of 12 and 17 on proapoptotic and antiapoptotic pathways. T24 cells were treated with DMSO (0.1%), 12 (30–50 µM), or 17 (30–50 µM) for 24 h. Expression levels of cleaved caspase-3, Bax, Bcl-2, and GAPDH were analyzed by Western blot by corresponding antibodies. The quantitation of the cleaved caspase-3/GAPDH, Bax/GAPDH, and Bcl-2/GAPDH ratio are shown. All data are expressed as the mean ± S.E.M. (n = 3). * p < 0.05, ** p < 0.01, *** p < 0.001 compared with the DMSO group.

[2] = Cell viability in normal cells, HaCaT; format: cell-based; details: human, HaCaT normal human keratinocytes; for viability at 20 µM: mean (n = 3); for IC50: 50% inhibition
Protocol: All cells were purchased from Bioresource Collection and Research Center (Hsinchu, Taiwan) and cultured in corresponding media supplemented with 10% fetal bovine serum, 1 × Antibiotic-Antimycotic at 37 °C in a humidified incubator with 5% CO2. […] T24 cells were cultured in McCoy’s 5a media. IEC-6 cells were cultured in DMEM media supplemented with 5% fetal bovine serum, 1 × Antibiotic–Antimycotic, and 0.1 unit/mL insulin.
Cells were incubated with the Cell Counting Kit-8 (CCK-8) reagent (TargetMol, Boston, MA, USA) at 37 °C for 2 h. The cell viability was determined by spectrophotometer at 450 nm.

[3] = system: Bcl-2; experiment: Western blot, Bcl-2 in T24 cells; format: cell-based, human; details: for Decrease in the antiapoptotic marker Bcl-2: 50 μM; for Expression of antiapoptotic protein Bcl-2: 10–50 μM, 24 h, Western blot
From the text: as §1, §2

[4] = system: T24 cells; experiment: Cell cycle assay (PI staining, flow cytometry); format: cell-based, human; details: 30–50 µM, 24 h
Protocol: Cells were fixed with 75% ethanol and then stained with 50 μg/mL propidium iodide (PI; Cat# P4170, Sigma-Aldrich, St. Louis, MO, USA) at room temperature for 1 h. Cell cycle was analyzed by flow cytometry.
Figure 2 Analysis of cell cycle progression upon treatment with compounds 12 and 17. T24 cells were treated with DMSO (0.1%), 12 (30–50 µM), or 17 (30–50 µM) for 24 h. Cell cycle was examined by propidium iodide (PI) staining and flow cytometry. All data are expressed as the mean ± S.E.M. (n = 3).

[5] = system: T24 cells; experiment: Apoptosis assay (Annexin V-FITC/PI, flow cytometry); format: cell-based, human; details: 24 h
Protocol: Apoptosis was examined by Annexin V-FITC/PI Apoptosis Kit (Cat# E-CK-A211, Elabscience, Houston, TX, USA) following the manufacturer’s protocol and analyzed by flow cytometry.
Figure 3 Annexin V and PI staining in T24 cells to investigate if compounds 12 and 17 could induce apoptotic death. T24 cells were treated with DMSO (0.1%), 12 (30–50 µM), or 17 (30–50 µM) for 24 h and then stained with Annexin V-FITC antibody and PI. The Annexin V-positive apoptotic cells were monitored using flow cytometry. All data are expressed as the mean ± S.E.M. (n = 3). * p < 0.05, ** p < 0.01 compared with the DMSO group. […] Best reading, upper row: Q1-UL 0.1%, Q1-UR 4.5%, Q1-LL 84.7%, Q1-LR 10.7%. Lower row: Q1-UL 0.2%, Q1-UR 5.1%, Q1-LL 84.9%, Q1-LR 9.8%. They are left out of lines because no compound is present.

[6] = system: Bax; experiment: Western blot, Bax in T24 cells; format: cell-based, human; details: 10–50 μM, 24 h
From the text: as §1, §2

Q: Which “Level of cleaved caspase-3” value [1] does the source give for `COc1cccc(CNC(=O)c2cc3cc(O)ccc3s2)c1` [Compound 12, 5-Hydroxy-N-(3-methoxybenzyl)benzo[b]thiophene-2-carboxamide] here?
A: increased the proapoptotic levels of cleaved caspase-3 and Bax

Q: What about the viability at 20 µM [2] of the same compound?
A: 67.6%

Q: And the IC50 [2]?
A: > 20 µM

Q: And the “Decrease in the antiapoptotic marker Bcl-2” value [3]?
A: approximately 0.5 fold

Q: What about the “Expression of antiapoptotic protein Bcl-2” value [3] of the same compound?
A: decreased the expression of the antiapoptotic protein, Bcl-2

Q: And the “Effect on cell cycle progression” value [4]?
A: much weaker than those of compound 17

Q: And the “Apoptotic cell population (Annexin V-positive)” value ([5]; 50 µM)?
A: increased the apoptotic cell population

Q: What about the “Level of Bax” value [6] of the same compound?
A: increased the proapoptotic levels of cleaved caspase-3 and Bax

Q: With `O=C(NCc1cc(F)cc(F)c1)c1cc2cc(O)ccc2s1` [Compound 17, N-(3,5-Difluorobenzyl)-5-hydroxybenzo[b]thiophene-2-carboxamide] as the compound, how does the “Level of cleaved caspase-3” value [1] read?
A: increased the proapoptotic levels of cleaved caspase-3 and Bax

Q: What about the viability at 20 µM [2] of the same compound?
A: 64.9%

Q: What about the IC50 [2] of the same compound?
A: > 20 µM

Q: What about the “Decrease in the antiapoptotic marker Bcl-2” value [3] of the same compound?
A: approximately 0.5 fold

Q: What about the “Expression of antiapoptotic protein Bcl-2” value [3] of the same compound?
A: decreased the expression of the antiapoptotic protein, Bcl-2

Q: What about the “Effect on cell cycle progression” value [4] of the same compound?
A: retain the cells in the G2/M phase

Q: What about the “Apoptotic cell population (Annexin V-positive)” value ([5]; 30 and 50 μM) of the same compound?
A: dose-dependently increased the apoptotic cell population

Q: And the “Level of Bax” value [6]?
A: increased the proapoptotic levels of cleaved caspase-3 and Bax
